Values joined by “and” are separate entries in the source; they are usually repeats but may differ in a detail not shown here. Equal entries are not always repeated.
System: T-lymphocytes
Assay: Blastogenesis of T-cells, 3H-thymidine incorporation
Type: cell-based
Settings: for 3H-thymidine incorporation/well / Stimulation Index: PHA 5 μg/ml
Protocol: Dilutions of PHA were prepared from 1:100 to 1:1000 and the dilutions were added to mycro-plate system lymphocyte cultures. Phytohemaglutinin, Pockeweed antigen and A Concanavalin were added to identified wells. After the culture period, T-lymphocytes proliferation was determined by radioactive tymidine uptake assay.
The present study compared the mitogenic effect of hyperimmune whole egg and a partially purified fraction of the hyperimmune egg (less then 3K fraction described in Example 2) against control medium alone. The hyperimmune whole egg was tested at varying concentrations that include 0.24, 0.98, 3.9, 15.6, 62.5 and 250 μg/ml. The purified less than 3K fraction from the hyperimmune egg was tested at 0.1, 0.2, 0.7, 2.0, 6.1, 18.4, 55.3 and 166.0 μg/ml concentrations. The Stimulating Index for hyperimmune whole egg, in accordance with the above concentrations, was 0.9, 0.8, 0.9, 0.9, 0.8, and 0.8 respectively, which corresponds, in the test conditions, to a cell population increase of 90, 80, 90, 90, 80 and 80% respectively. The Stimulating Index for the 3K purified fraction, in accordance with the above concentrations, was 1.1, 1.2, 1.5, 1.7, 1.4, 1.3, 1.0 and 1.2 respectively (see Table 2), which corresponds, in the test conditions, to a cell population increasing of 110, 120, 150, 170, 140, 130, 100 and 120% respectively.

[1] = single wells No. 1-6, first study
[2] = single wells No. 1-6, repeated study

In the case of Phytohemaglutinin [PHA], the 3H-thymidine incorporation/well (AVE of 6 wells, first study) is reported as 108028 cpm, the “Stimulation Index” value (AVE of 6 wells, first study) is reported as 195.8 and the 3H-thymidine incorporation/well (AVE of 6 wells, repeated study) is reported as 109901 cpm. For the same substance, the “Stimulation Index” value (AVE of 6 wells, repeated study) was 292.2, the 3H-thymidine incorporation/well [1] was 98898 cpm and 121212 cpm and 97149 cpm and 118218 cpm and 101241 cpm and 111452 cpm and the “Stimulation Index” value [1] was 179.2 and 219.7 and 176.0 and 214.2 and 183.5 and 202.0. For the same substance, the 3H-thymidine incorporation/well [2] was 110201 cpm and 121811 cpm and 97453 cpm and 112934 cpm and 102484 cpm and 114522 cpm, the “Stimulation Index” value [2] was 293.0 and 323.8 and 259.1 and 300.2 and 272.4 and 304.4 and the T-lymphocytes proliferation (PHA dilutions 1:100 to 1:1000, radioactive tymidine uptake) was “increased the proliferation of free mitogen lymphocytes intensively”.

Reference: US20040005327A1, “Immune T-cell stimulation” (priority 2002, published 2004)
